In patent publication US20060100431A1, “Biologically active compounds” (Amura Therapeutics Limited, priority 2002, published 2006):

What was measured:
Format in all cases: biochemical
human cathepsin L = biological target: T1, human cathepsin L (Homo sapiens, UniProt P07711); test: Cathepsin L peptidase activity assay (Ki); details: read-out: Ki, inhibitors of cathepsin L
T1 construct: purchased CN Biosciences
How it was run: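 Human cathepsin L at 1 nM with Ac-Phe-Arg-AMC at its KM^app (~20 μM) in 10 mM bis-tris-propane pH 6.5, 1 mM EDTA, 5 mM 2-mercaptoethanol, 1 mM CaCl2, DMSO <1%, 25±1° C. Reaction enzyme-initiated; AMC fluorescence (ex 365/em 450 nm) monitored over time.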

Wild-type cruzipain = Wild-type cruzipain (Trypanosoma cruzi, UniProt P25779); test: Trypanosoma cruzi cruzipain peptidase activity assay (Ki); details: read-out: Ki, inhibitors of cruzain and cruzipains
Sequence of Wild-type cruzipain (P25779 whole entry): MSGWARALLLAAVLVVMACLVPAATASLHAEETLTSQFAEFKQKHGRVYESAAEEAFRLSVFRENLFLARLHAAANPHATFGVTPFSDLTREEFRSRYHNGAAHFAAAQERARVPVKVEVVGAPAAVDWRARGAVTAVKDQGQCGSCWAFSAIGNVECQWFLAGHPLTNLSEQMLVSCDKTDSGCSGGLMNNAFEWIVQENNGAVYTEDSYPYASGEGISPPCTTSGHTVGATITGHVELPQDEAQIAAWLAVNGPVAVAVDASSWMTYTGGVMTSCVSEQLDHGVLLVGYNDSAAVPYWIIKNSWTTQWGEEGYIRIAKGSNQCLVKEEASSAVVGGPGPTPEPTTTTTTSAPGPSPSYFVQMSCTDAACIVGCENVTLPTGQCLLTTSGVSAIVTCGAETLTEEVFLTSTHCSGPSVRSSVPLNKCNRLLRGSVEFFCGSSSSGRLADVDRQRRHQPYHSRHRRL
How it was run: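 Native cruzipain from T. cruzi Dm28 epimastigotes, 2.5 nM, in 100 mM sodium phosphate pH 6.75 with 1 mM EDTA and 10 mM L-cysteine, 25 °C, DMSO <1%. Rates taken from continuous fluorogenic substrate read; Ki by regression assuming reversible pure-competitive inhibition.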

human cathepsin B = biological target: T2, human cathepsin B (Homo sapiens, UniProt P07858); test: Cathepsin B peptidase activity assay (Ki); details: read-out: Ki, inhibitors of cathepsin B
T2 construct: purchased CN Biosciences
How it was run: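 Buffer: 10 mM bis-tris-propane pH 6.5, 1 mM EDTA, 5 mM 2-mercaptoethanol, 1 mM CaCl2; DMSO <1%. Ki assumed reversible, pure-competitive, from Ki^app=Ki(1+[So]/KM^app) by non-linear regression.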

CPB2.8ΔCTE = biological target: T3, CPB2.8ΔCTE (Leishmania mexicana, UniProt P36400); test: Leishmania mexicana cysteine protease B (CPB) peptidase activity assay (Ki); details: Ki, inhibitors of Leismania mexicana CPB protease
T3 construct: Wild-type recombinant CPB without the C-terminal extention (i.e. CPB2.8ΔCTE); Dr. Jeremy Mottram (Wellcome Centre for Molecular Parasitology, University of Glasgow)
T3 sequence (P36400 126-343, stated change not applied): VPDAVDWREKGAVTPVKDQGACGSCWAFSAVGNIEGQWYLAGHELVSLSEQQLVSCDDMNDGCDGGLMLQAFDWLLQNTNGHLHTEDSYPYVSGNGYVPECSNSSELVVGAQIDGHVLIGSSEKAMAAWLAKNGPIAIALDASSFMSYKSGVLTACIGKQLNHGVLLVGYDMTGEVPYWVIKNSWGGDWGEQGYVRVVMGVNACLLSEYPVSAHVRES
How it was run: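 Recombinant CPB2.8ΔCTE (0.25 nM) was assayed in 100 mM sodium acetate pH 5.5 with 1 mM EDTA, 200 mM NaCl and 10 mM DTT at 25 °C, DMSO <1%, enzyme added to start. Rates were taken from continuous fluorescence slopes; apparent Ki was fitted assuming reversible, pure-competitive inhibition.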

Measured: Ki

T1 sequence (P07711 114-333): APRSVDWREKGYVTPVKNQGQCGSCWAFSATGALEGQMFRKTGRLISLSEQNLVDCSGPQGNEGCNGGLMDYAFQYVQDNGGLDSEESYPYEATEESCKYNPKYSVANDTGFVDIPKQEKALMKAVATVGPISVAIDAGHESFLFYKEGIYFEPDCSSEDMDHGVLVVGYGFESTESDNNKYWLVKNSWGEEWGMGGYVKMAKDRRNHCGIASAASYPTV

CC(C)C[C@H](NC(=O)c1ccc(N(C)C)cc1)C(=O)N1CC[C@@H]2[C@H]1C(=O)CN2C(=O)C1CCCCC1 [Example 104, (3aR,6aS)-N-[(1S)-1-(4-Cyclohexanecarbonyl-6-oxo-hexahydro-pyrrolo[3,2-b]pyrrole-1-carbonyl)-3-methyl-butyl]-4-dimethylamino-benzamide]
< 5 µM: all assays above

O=C(N[C@@H](CC1CCCCC1)C(=O)N1CC[C@@H]2[C@H]1C(=O)CN2C(=O)c1cccc2ccccc12)c1ccsc1 [Example 255, (3aR,6aS)-Thiophene-3-carboxylic acid {(1S)-1-cyclohexylmethyl-2-[4-(naphthalene-1-carbonyl)-6-oxo-hexahydro-pyrrolo[3,2-b]pyrrol-1-yl]-2-oxo-ethyl}-amide]
< 5 µM: human cathepsin L | Wild-type cruzipain | human cathepsin B

CC(C)C[C@H](NC(=O)c1ccc(C(C)(C)C)cc1)C(=O)N1CC[C@@H]2[C@H]1C(=O)CN2C(=O)c1ccc(-c2ccccc2)s1 [Example 28, (3aR,6aS)-4-tert-Butyl-N-{(1S)-3-methyl-1-[6-oxo-4-(5-phenyl-thiophene-2-carbonyl)-hexahydro-pyrrolo[3,2-b]pyrrole-1-carbonyl]-butyl}-benzamide]
< 5 µM: all assays above

O=C(N[C@@H](CC1CCCCC1)C(=O)N1CC[C@@H]2[C@H]1C(=O)CN2C(=O)c1ccccc1)c1csc2ccccc12 [Example 254, (3aR,6aS)-Benzo[b]thiophene-3-carboxylic acid [(1S)-2-(4-benzoyl-6-oxo-hexahydro-pyrrolo[3,2-b]pyrrole-1-yl)-1-cyclohexylmethyl-2-oxo-ethyl]-amide]
< 5 µM: human cathepsin L | Wild-type cruzipain | human cathepsin B

Cc1cccc(C(=O)N2CC(=O)[C@@H]3[C@H]2CCN3C(=O)[C@H](CC2CCCCC2)NC(=O)c2ccsc2)c1 [Example 292, (3aR,6aS)-Thiophene-3-carboxylic acid {(1S)-1-cyclohexylmethyl-2-[4-(3-methyl-benzoyl)-6-oxo-hexahydro-pyrrolo[3,2-b]pyrrol-1-yl]-2-oxo-ethyl}-amide]
< 5 µM: human cathepsin L | Wild-type cruzipain | human cathepsin B

O=C(N[C@@H](CC1CCCCC1)C(=O)N1CC[C@@H]2[C@H]1C(=O)CN2C(=O)c1ccccc1)c1ccccc1 [Example 290, (3aR,6aS)-N-[(1S)-2-(4-Benzoyl-6-oxo-hexahydro-pyrrolo[3,2-b]pyrrol-1-yl)-1-cyclohexylmethyl-2-oxo-ethyl]-benzamide]
< 5 µM: human cathepsin L | Wild-type cruzipain | human cathepsin B

CS(=O)(=O)c1ccccc1C(=O)N1CC(=O)[C@@H]2[C@H]1CCN2C(=O)[C@H](CSCc1ccccc1)NC(=O)c1ccsc1 [Example 261, (3aR,6aS)-Thiophene-3-carboxylic acid {(1R)-1-benzylsulfanylmethyl-2-[4-(2-methanesulfonyl-benzoyl)-6-oxo-hexahydro-pyrrolo[3,2-b]pyrrol-1-yl]-2-oxo-ethyl}-amide]
< 5 µM: human cathepsin L | Wild-type cruzipain | human cathepsin B

CC(C)C[C@H](NC(=O)C(c1ccccc1)c1ccccc1)C(=O)N1CC[C@@H]2[C@H]1C(=O)CN2C(=O)c1csc2ccccc12 [Example 271, (3aR,6aS)-N-{(1S)-1-[4-(Benzo[b]thiophene-3-carbonyl)-6-oxo-hexahydro-pyrrolo[3,2-b]pyrrole-1-carbonyl]-3-methyl-butyl}-2,2-diphenyl-acetamide]
< 5 µM: all assays above

CC(C)C[C@H](NC(=O)c1cc2ccccc2s1)C(=O)N1CC[C@@H]2[C@H]1C(=O)CN2C(=O)c1cccnc1 [Example 15, (3aR,6aS)-Benzo[b]thiophene-2-carboxylic acid {(1S)-3-methyl-1-[6-oxo-4-(pyridine-3-carbonyl)-hexahydro-pyrrolo[3,2-b]pyrrole-1-carbonyl]-butyl}-amide]
< 5 µM: human cathepsin L | Wild-type cruzipain | human cathepsin B

Cc1cccc(C(=O)N2CC(=O)[C@@H]3[C@H]2CCN3C(=O)[C@H](CSCc2ccccc2)NC(=O)c2ccsc2)c1 [Example 275, (3aR,6aS)-Thiophene-3-carboxylic acid {(1R)-1-benzylsulfanylmethyl-2-[4-(3-methyl-benzoyl)-6-oxo-hexahydro-pyrrolo[3,2-b]pyrrol-1-yl]-2-oxo-ethyl}-amide]
< 5 µM: human cathepsin L | human cathepsin B

CC(C)C[C@H](NC(=O)c1ccc(C(C)(C)C)cc1)C(=O)N1CC[C@@H]2[C@H]1C(=O)CN2C(=O)c1csc2ccccc12 [Example 31]
< 5 µM: all assays above

O=C(N[C@@H](CSCc1ccccc1)C(=O)N1CC[C@@H]2[C@H]1C(=O)CN2C(=O)c1ccccc1)c1ccc2ncsc2c1 [Example 281, (3aR,6aS)-Benzothiazole-6-carboxylic acid [(1R)-2-(4-benzoyl-6-oxo-hexahydro-pyrrolo[3,2-b]pyrrole-1-yl)-1-benzylsulfanylmethyl-2-oxo-ethyl]-amide]
< 5 µM: human cathepsin L | human cathepsin B

O=C(N[C@@H](CC1CCCCC1)C(=O)N1CC[C@@H]2[C@H]1C(=O)CN2C(=O)c1ccccc1)c1ccc2ncsc2c1 [Example 286, (3aR,6aS)-Benzothiazole-6-carboxylic acid [(1S)-2-(4-benzoyl-6-oxo-hexahydro-pyrrolo[3,2-b]pyrrole-1-yl)-1-cyclohexylmethyl-2-oxo-ethyl]-amide]
< 5 µM: all assays above

CC(C)C[C@H](NC(=O)c1ccc(N(C)C)cc1)C(=O)N1CC[C@@H]2[C@H]1C(=O)CN2C(=O)c1cccc(Cl)c1 [Example 73, (3aR,6aS)-N-{(1S)-1-[4-(3-Chloro-benzoyl)-6-oxo-hexahydro-pyrrolo[3,2-b]pyrrole-1-carbonyl]-3-methyl-butyl}-4-dimethylamino-benzamide]
< 5 µM: all assays above
